According to publication PMC8573357, “Exploring Multifunctional Bioactive Components from Podophyllum sinense Using Multi-Target Ultrafiltration” (Frontiers in Pharmacology, 2021):

Target: ACE2 (Homo sapiens, UniProt Q9BYF1)
Experiment: affinity ultrafiltration-HPLC/MS from crude extract against heat-inactivated control; identity by standard
Assay type: binding

ACE2, sequence (Q9BYF1 18-805): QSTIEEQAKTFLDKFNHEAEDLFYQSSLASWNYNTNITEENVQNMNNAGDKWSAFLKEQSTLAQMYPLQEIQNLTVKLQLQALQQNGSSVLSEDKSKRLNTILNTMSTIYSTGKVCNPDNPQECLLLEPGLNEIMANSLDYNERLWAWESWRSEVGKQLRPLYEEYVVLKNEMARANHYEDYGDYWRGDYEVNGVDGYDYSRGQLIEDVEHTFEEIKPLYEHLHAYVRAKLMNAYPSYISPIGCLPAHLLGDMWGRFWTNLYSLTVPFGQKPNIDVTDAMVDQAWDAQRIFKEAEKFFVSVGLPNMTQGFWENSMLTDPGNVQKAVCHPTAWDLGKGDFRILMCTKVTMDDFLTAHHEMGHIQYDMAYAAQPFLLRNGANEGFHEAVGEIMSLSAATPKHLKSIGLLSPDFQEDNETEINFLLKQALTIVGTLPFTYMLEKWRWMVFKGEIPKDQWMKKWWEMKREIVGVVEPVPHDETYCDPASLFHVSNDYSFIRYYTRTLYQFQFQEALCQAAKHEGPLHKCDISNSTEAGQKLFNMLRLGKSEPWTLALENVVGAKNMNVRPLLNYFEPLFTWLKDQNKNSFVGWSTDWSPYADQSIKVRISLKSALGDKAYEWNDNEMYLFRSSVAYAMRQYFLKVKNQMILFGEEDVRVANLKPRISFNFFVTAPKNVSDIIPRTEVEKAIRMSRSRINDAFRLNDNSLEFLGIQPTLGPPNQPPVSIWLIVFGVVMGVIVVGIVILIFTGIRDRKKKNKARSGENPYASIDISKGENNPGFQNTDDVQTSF

O=c1c(O)c(-c2ccc(O)cc2)oc2cc(O)cc(O)c12 [Peak 7, Kaempferol]
EFs ^b (%) / ACE2: 3.10 % (enrichment factor)

COc1cc2c(O)c3c(c(-c4ccc5c(c4)OCO5)c2cc1OC)C(=O)OC3 [Peak 10, Diphyllin]
EFs ^b (%) / ACE2: 3.68 % (enrichment factor)
